# According to US8044073B2, “Aminobenzimidazoles and benzimidazoles as inhibitors of respiratory syncytial virus replication” (Tibotec Pharmaceuticals, priority 2003, dated 2011):
# Tested on: Respiratory Syncytial Virus
# Experiment: In vitro screening for activity against RSV (tetrazolium-based colorimetric assay, protection against viral cytopathology)
# Type: cell-based
# Details: Table 1; RSV in HeLa cells, MTT, seven days after infection; pEC50 = -log of EC50 in molar units
# From the text: The percent protection against cytopathology caused by viruses (antiviral activity or EC50) achieved by tested compounds and their cytotoxicity (CC50) are both calculated from dose-response curves. The selectivity of the antiviral effect is represented by the selectivity index (SI), calculated by dividing the CC50 (cytotoxic dose for 50% of the cells) by the EC50 (antiviral activity for 50% of the cells). The tables in the above experimental part list the category to which each of the prepared compounds belong: Compounds belonging to activity category “A” have a pEC50 (−log of EC50 when expressed in molar units) equal to or more than 7. Compounds belonging to activity category “B” have a pEC50 value between 6 and 7.
# Automated tetrazolium-based colorimetric assays were used for determination of EC50 and CC50 of test compounds. Flat-bottom, 96-well plastic microtiter trays were filled with 180 μl of Eagle's Basal Medium, supplemented with 5% FCS (0% for FLU) and 20 mM Hepes buffer. Subsequently, stock solutions (7.8× final test concentration) of compounds were added in 45 μl volumes to a series of triplicate wells so as to allow simultaneous evaluation of their effects on virus- and mock-infected cells. Five five-fold dilutions were made directly in the microtiter trays using a robot system. Untreated virus controls, and HeLa cell controls were included in each test. Approximately 100 TCID50 of Respiratory Syncytial Virus was added to two of the three rows in a volume of 50 μl. The same volume of medium was added to the third row to measure the cytotoxicity of the compounds at the same concentrations as those used to measure the antiviral activity. After two hours of incubation, a suspension (4×10^5 cells/ml) of HeLa cells was added to all wells in a volume of 50 μl. The cultures were incubated at 37° C. in a 5% CO2 atmosphere. Seven days after infection the cytotoxicity and the antiviral activity was examined spectrophotometrically. To each well of the microtiter tray, 25 μl of a solution of MTT (3-(4,5-dimethylthiazol-2-yl)-2,5-diphenyltetrazolium bromide) was added. The trays were further incubated at 37° C. for 2 hours, after which the medium was removed from each cup. Solubilization of the formazan crystals was achieved by adding 100 μl 2-propanol. Complete dissolution of the formazan crystals were obtained after the trays have been placed on a plate shaker for 10 min. Finally, the absorbances were read in an eight-channel computer-controlled photometer (Multiskan MCC, Flow Laboratories) at two wavelengths (540 and 690 nm). The absorbance measured at 690 nm was automatically subtracted from the absorbance at 540 nm, so as to eliminate the effects of non-specific absorption.
# The percent protection against cytopathology caused by viruses (antiviral activity or EC50) achieved by tested compounds and their cytotoxicity (CC50) were both calculated from dose-response curves. The selectivity of the antiviral effect is represented by the selectivity index (SI), calculated by dividing the CC50 (cytotoxic dose for 50% of the cells) by the EC50 (antiviral activity for 50% of the cells).
row,Structure (SMILES),Activity
1,Cc1ccc(O)c(Cn2c(N)nc3ccc(CNc4cc(C(C)(C)C)cc(C(C)(C)C)c4)cc32)n1 [Compound 76],6.8
2,Cc1ccc(O)c(Cn2c(N)nc3ccc(CNc4cccc(OCc5ccccc5)c4)cc32)n1 [Compound 77],6.8
3,Cc1ccc(O)c(Cn2c(N)nc3ccc(CNc4cc(C(=O)O)cc(C(F)(F)F)c4)cc32)n1 [Compound 78],6.6
4,Cc1ccc(O)c(Cn2c(N)nc3ccc(CNc4cccc(Cc5ccccc5)c4)cc32)n1 [Compound 79],6.4
5,Cc1ccc(O)c(Cn2c(N)nc3ccc(CNc4cc(OCC(F)(F)F)cc(OCC(F)(F)F)c4)cc32)n1 [Compound 80],6.2
6,Cc1ccc(O)c(Cn2c(N)nc3ccc(CNc4ccccc4CCO)cc32)n1 [Compound 81],9.4
7,Cc1ccc(O)c(Cn2c(N)nc3ccc(CNc4cccc(C)c4CCO)cc32)n1 [Compound 84],9
8,Cc1ccc(O)c(Cn2c(N)nc3ccc(CNc4ccc(C(N)=O)cc4)cc32)n1 [Compound 85],8.4
9,Cc1ccc(O)c(Cn2c(N)nc3ccc(CNc4cccc(C)c4CO)cc32)n1 [Compound 87],8.2
10,Cc1ccc(O)c(Cn2c(N)nc3ccc(CNc4cc(C#N)ccc4CCO)cc32)n1 [Compound 89],10.6
11,Cc1ccc(OCCO)c(NCc2ccc3nc(N)n(Cc4nc(C)ccc4O)c3c2)c1 [Compound 91],10.5
12,C#Cc1ccc(CCO)c(NCc2ccc3nc(N)n(Cc4nc(C)ccc4O)c3c2)c1 [Compound 92],10.4

# Same assay, conditions: Table 2; RSV in HeLa cells, MTT, seven days after infection; pEC50 = -log of EC50 in molar units
row,Structure (SMILES),Activity
1,Cc1ccc(O)c(Cn2c(N)nc3cc(CNc4ccccc4)ccc32)n1 [Compound 116],7.0
2,Cc1cc(C)cc(NCc2ccc3c(c2)nc(N)n3Cc2nc(C)ccc2O)c1 [Compound 117],6.8
3,CC(=O)c1cccc(NCc2ccc3c(c2)nc(N)n3Cc2nc(C)ccc2O)c1 [Compound 118],6.4
4,Cc1ccc(O)c(Cn2c(N)nc3cc(CNc4cccc(C)c4C)ccc32)n1 [Compound 119],6.4
5,Cc1cccc(NCc2ccc3c(c2)nc(N)n3Cc2nc(C)ccc2O)c1 [Compound 120],6.4
6,Cc1ccc(O)c(Cn2c(N)nc3cc(CNc4cc(Cl)cc(Cl)c4)ccc32)n1 [Compound 121],5.8
7,Cc1ccc(O)c(Cn2c(N)nc3cc(CNc4cccc(Cl)c4)ccc32)n1 [Compound 122],<4.0
8,Cc1ccc(O)c(Cn2c(N)nc3cc(CNc4cccc5cccnc45)ccc32)n1 [Compound 123],<4.0
9,Cc1ccc(O)c(Cn2c(N)nc3cc(CNc4cccc(F)c4)ccc32)n1 [Compound 124],<4.0
10,CCc1cccc(NCc2ccc3c(c2)nc(N)n3Cc2nc(C)ccc2O)c1 [Compound 125],<4.0
11,Cc1ccc(O)c(Cn2c(N)nc3cc(CNc4cccc(Br)c4)ccc32)n1 [Compound 126],<4.0
12,C#Cc1cccc(NCc2ccc3c(c2)nc(N)n3Cc2nc(C)ccc2O)c1 [Compound 127],<4.0

# Same assay, conditions: Table 3; RSV in HeLa cells, MTT, seven days after infection; pEC50 = -log of EC50 in molar units
row,Structure (SMILES),Activity
1,Cc1ccc(O)c(Cn2c(N)nc3ccc(CN(Cc4ccccc4)c4ccccc4)cc32)n1 [Compound 133],7.5
2,Cc1ccc(O)c(Cn2c(N)nc3ccc(CN(C)c4ccccc4CCO)cc32)n1 [Compound 166],6.8
3,Cc1ccc(O)c(Cn2c(N)nc3ccc(CN(CCC(N)=O)c4cc(Cl)cc(Cl)c4)cc32)n1 [Compound 167],9.4
4,Cc1cccc(N(CCCS(N)(=O)=O)Cc2ccc3nc(N)n(Cc4nc(C)ccc4O)c3c2)c1 [Compound 168],9.3
5,Cc1cccc(N(CCOCCO)Cc2ccc3nc(N)n(Cc4nc(C)ccc4O)c3c2)c1.Cl [Compound 171],8.9
6,CNC(=O)CCN(Cc1ccc2nc(N)n(Cc3nc(C)ccc3O)c2c1)c1cccc(C)c1.Cl [Compound 172],8.8
7,Cc1ccc(O)c(Cn2c(N)nc3ccc(CN(CCO)c4cnc5ccccc5c4)cc32)n1 [Compound 175],8.5
8,Cc1cccc(N(Cc2ccc3nc(N)n(Cc4nc(C)ccc4O)c3c2)Cc2c[nH]cn2)c1 [Compound 176],8.3
9,Cc1cccc(N(Cc2ccc3nc(N)n(Cc4nc(C)ccc4O)c3c2)CC(O)CO)c1 (centres unmarked) [Compound 180],9.3

# Same assay, conditions: Table 4; RSV in HeLa cells, MTT, seven days after infection; pEC50 = -log of EC50 in molar units
row,Structure (SMILES),Activity
1,Cc1cc(C)cc(NCc2ccc3ncn(Cc4nc(C)ccc4O)c3c2)c1 [Compound 184],6.7
2,Cc1ccc(O)c(Cn2cnc3ccc(CNc4cc(Cl)cc(Cl)c4)cc32)n1 [Compound 185],6.1
3,CCc1cccc(NCc2ccc3ncn(Cc4nc(C)ccc4O)c3c2)c1 [Compound 187],5.7
4,Cc1ccc(O)c(Cn2cnc3ccc(/C=C/C#N)cc32)n1 [Compound 189],4.8
5,Cc1ccc(O)c(Cn2cnc3ccc(NC(=O)c4ccccc4)cc32)n1 [Compound 190],<4.0
6,Cc1ccc(CCCO)c(NCc2ccc3ncn(Cc4nc(C)ccc4O)c3c2)c1 [Compound 191],7.9
7,Cc1ccc(CCO)c(NCc2ccc3ncn(Cc4nc(C)ccc4O)c3c2)c1 [Compound 192],7.8
8,Cc1cccc(N(CCO)Cc2ccc3ncn(Cc4nc(C)ccc4O)c3c2)c1 [Compound 193],6.3

# Same assay, conditions: Table 5a; RSV in HeLa cells, MTT, seven days after infection; pEC50 = -log of EC50 in molar units
row,Structure (SMILES),Activity
1,Cc1ccc(O)c(Cn2c(N)nc3ccc(CCCN)cc32)n1.Cl [Compound 196],7.7
2,Cc1ccc(O)c(Cn2c(N)nc3ccc(CCC#N)cc32)n1 [Compound 198],6.8
3,Cc1cc(C)c2nc(N)n(Cc3nc(C)ccc3O)c2c1 [Compound 199],6.8
4,CNc1nc2ccc(CO)cc2n1Cc1nc(C)ccc1O [Compound 200],4.9
5,CNc1nc2cc(CO)ccc2n1Cc1nc(C)ccc1O [Compound 202],<4.0

# Same assay, conditions: Table 5b; RSV in HeLa cells, MTT, seven days after infection; pEC50 = -log of EC50 in molar units
row,Structure (SMILES),Activity
1,Cc1ccc(CCCO)c(NCc2ccc3nc(N)n(Cc4cccc5cccnc45)c3c2)c1 [Compound 208],7.9
2,COc1ccc(C)nc1Cn1c(N)nc2ccc(CNc3cc(C)ccc3CCCO)cc21 [Compound 209],7.8
3,Cc1ccc(CCCO)c(NCc2ccc3nc(N)n(Cc4cccc(Br)n4)c3c2)c1 [Compound 212],7.5
4,Cc1ccc(CCCO)c(NCc2ccc3nc(N)n(Cc4cccc5cccnc45)c3c2)c1 [Compound 214],7.3
5,Cc1ccc(CCCO)c(NCc2ccc3nc(N)n(Cc4nc(C)c(C)nc4C)c3c2)c1 [Compound 218],6.1
6,Cc1ccc(CCCO)c(NCc2ccc3nc(N)n(Cc4ccc(F)cc4)c3c2)c1 [Compound 219],5.3
7,Cc1cccc(N(CCCO)Cc2ccc3nc(N)n(Cc4cccc5cccnc45)c3c2)c1 [Compound 225],<4
8,Cc1ccc(CCCO)c(NCc2ccc3nc(N)n(Cc4cccc(Br)n4)c3c2)c1 [Compound 228],<4
9,COc1ccc(C)nc1Cn1c(N)nc2ccc(CNc3cc(C)ccc3CCCO)cc21 [Compound 234],<4
10,Cc1ccc(CCCO)c(NCc2ccc3nc(N)n(Cc4cccc5c4ncn5C)c3c2)c1 [Compound 235],<4

# Same assay, conditions: Table 6; numeric activity values, pEC50 (−log of EC50 in molar units)
row,Structure (SMILES),Activity
1,Cc1ccc(O)c(Cn2cnc3cc(CNCCCC4CCC(=O)N4)ccc32)n1 (centres unmarked) [Compound 241],4.5

# Same assay, conditions: human respiratory syncytial virus, 168 h; Table 4; RSV in HeLa cells, MTT, seven days after infection; pEC50 = -log of EC50 in molar units; read-out: Activity (converted)
row,Structure (SMILES),EC50 [µM]
1,"Cc1ccc(O)c(Cn2cnc3ccc(CNc4cccc(Cl)c4)cc32)n1 [Compound 186, 2-{6-[(3-chloro-phenylamino)-methyl]-benzoimidazol-1-ylmethyl}-6-methyl-pyridin-3-ol]",1.58

# Same assay, conditions: human respiratory syncytial virus, 168 h; Table 5b; RSV in HeLa cells, MTT, seven days after infection; pEC50 = -log of EC50 in molar units; read-out: Activity (converted)
row,Structure (SMILES),EC50 [µM]
1,"Nc1nc2ccc(CO)cc2n1Cc1cccc2cccnc12 [Compound 222, (2-amino-3-quinolin-8-ylmethyl-3H-benzoimidazol-5-yl)-methanol]",39.8
